Laboratory results taken from ChEMBL document CHEMBL1201862, “PubChem BioAssay data set” (2004).
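48-hour exposure; five concentrations; linearly interpolated endpoints. Here, GI50 denotes the concentration required for 50% inhibition of growth.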 Active and inactive are the calls of the source. Cut-off read from the data, not from the text of the source: active = GI50 up to about 1.1 µM and inactive = higher.

Assays:
Assay in all cases: DTP human tumour cell line panel, 48 h
M19-MEL = tested on: M19-MEL
SK-MEL-5 = tested on: SK-MEL-5
HCT-15 = tested on: HCT-15
EKVX = tested on: EKVX
A549 = tested on: A549
Malme-3M = tested on: Malme-3M
NCI-H522 = tested on: NCI-H522
SW-620 = tested on: SW-620
SK-OV-3 = tested on: SK-OV-3
OVCAR-5 = tested on: OVCAR-5
UACC-257 = tested on: UACC-257
U-251 = tested on: U-251
NCI-H23 = tested on: NCI-H23
HCC 2998 = tested on: HCC 2998
HOP-92 = tested on: HOP-92
HOP-18 = tested on: HOP-18
786-0 = tested on: 786-0
SNB-75 = tested on: SNB-75
DLD-1 = tested on: DLD-1
KM-20L2 = tested on: KM-20L2
SF-539 = tested on: SF-539
HOP-62 = tested on: HOP-62
CCRF-CEM = tested on: CCRF-CEM
HCT-116 = tested on: HCT-116
OVCAR-3 = tested on: OVCAR-3
UO-31 = tested on: UO-31
SK-MEL-2 = tested on: SK-MEL-2
SF-295 = tested on: SF-295
HT-29 = tested on: HT-29
LXFL 529 = tested on: LXFL 529
NCI-H460 = tested on: NCI-H460
SK-MEL-28 = tested on: SK-MEL-28
SNB-19 = tested on: SNB-19
OVCAR-4 = tested on: OVCAR-4
RXF 631 = tested on: RXF 631
ACHN = tested on: ACHN
SN12C = tested on: SN12C
M14 = tested on: M14
LOX IMVI = tested on: LOX IMVI
IGROV-1 = tested on: IGROV-1
COLO 205 = tested on: COLO 205
SNB-78 = tested on: SNB-78
A498 = tested on: A498
HL-60 = tested on: HL-60
UACC-62 = tested on: UACC-62
RPMI-8226 = tested on: RPMI-8226
OVCAR-8 = tested on: OVCAR-8
SF-268 = tested on: SF-268
TK-10 = tested on: TK-10
NCI-H226 = tested on: NCI-H226
DMS-114 = tested on: DMS-114
KM12 = tested on: KM12
RXF 393 = tested on: RXF 393
K562 = tested on: K562
MOLT-4 = tested on: MOLT-4
SR = tested on: SR
DMS-273 = tested on: DMS-273

In the case of CCCCCCCCCCCCCc1nnn[nH]1, the GI50 (M19-MEL) is reported as 19.7 µM (inactive), the GI50 (SK-MEL-5) is reported as 17.7 µM (inactive) and the GI50 (HCT-15) is reported as 18.3 µM. For the same compound, the GI50 (EKVX) was 23.4 µM (inactive), the GI50 (A549) was 20 µM (inactive) and the GI50 (Malme-3M) was 18.1 µM (inactive). For the same compound, the GI50 (NCI-H522) was 21.8 µM (inactive), the GI50 (SW-620) was 20 µM (inactive) and the GI50 (SK-OV-3) was 24.7 µM (inactive). For the same compound, the GI50 (OVCAR-5) was 18.5 µM (inactive), the GI50 (UACC-257) was 18.7 µM (inactive) and the GI50 (U-251) was 18.2 µM (inactive). The GI50 (NCI-H23) was 24.4 µM (inactive), the GI50 (HCC 2998) was 18.6 µM (inactive) and the GI50 (HOP-92) was 15.6 µM (inactive). For the same compound, the GI50 (HOP-18) was 15 µM (inactive), the GI50 (786-0) was 17.3 µM (inactive) and the GI50 (SNB-75) was 18.3 µM (inactive). The GI50 (DLD-1) was 17.1 µM (inactive), the GI50 (KM-20L2) was 20.2 µM (inactive) and the GI50 (SF-539) was 18.2 µM (inactive). For the same compound, the GI50 (HOP-62) was 18.2 µM (inactive), the GI50 (CCRF-CEM) was 18.8 µM (inactive) and the GI50 (HCT-116) was 17.9 µM (inactive). The GI50 (OVCAR-3) was 18.3 µM (inactive), the GI50 (UO-31) was 16 µM (inactive) and the GI50 (SK-MEL-2) was 18.2 µM (inactive). The GI50 (SF-295) was 19.2 µM (inactive), the GI50 (HT-29) was 18 µM (inactive) and the GI50 (LXFL 529) was 17.3 µM (inactive). For the same compound, the GI50 (NCI-H460) was 20.6 µM (inactive), the GI50 (SK-MEL-28) was 17.8 µM (inactive) and the GI50 (SNB-19) was 18.7 µM (inactive). The GI50 (OVCAR-4) was 18.3 µM (inactive), the GI50 (RXF 631) was 15.4 µM (inactive) and the GI50 (ACHN) was 19.1 µM (inactive). For the same compound, the GI50 (SN12C) was 18.8 µM (inactive), the GI50 (M14) was 17.5 µM (inactive) and the GI50 (LOX IMVI) was 18.4 µM (inactive). For the same compound, the GI50 (IGROV-1) was 21.2 µM (inactive), the GI50 (COLO 205) was 19.4 µM (inactive) and the GI50 (SNB-78) was 21.4 µM (inactive). For the same compound, the GI50 (A498) was 17 µM (inactive), the GI50 (HL-60) was 18.1 µM (inactive) and the GI50 (UACC-62) was 18 µM (inactive). For the same compound, the GI50 (RPMI-8226) was 22.4 µM (inactive), the GI50 (OVCAR-8) was 29.9 µM (inactive) and the GI50 (SF-268) was 19.6 µM (inactive). The GI50 (TK-10) was 20.6 µM (inactive), the GI50 (NCI-H226) was 22.2 µM (inactive) and the GI50 (DMS-114) was 18.5 µM (inactive). For the same compound, the GI50 (KM12) was 18.3 µM (inactive) and the GI50 (RXF 393) was 27.5 µM (inactive).

For O=C1C(c2ccc([N+](=O)[O-])cc2)=[N+]([O-])c2ccc([N+](=O)[O-])cc21, the GI50 (M19-MEL) was 27.6 µM (inactive), the GI50 (SK-MEL-5) was 30.8 µM (inactive) and the GI50 (K562) was 27.7 µM (inactive). For the same compound, the GI50 (EKVX) was > 100 µM (inactive), the GI50 (A549) was 37.8 µM (inactive) and the GI50 (SW-620) was 39.4 µM (inactive). The GI50 (SK-OV-3) was 36.4 µM (inactive), the GI50 (OVCAR-5) was > 100 µM (inactive) and the GI50 (U-251) was 49.9 µM (inactive). For the same compound, the GI50 (NCI-H23) was 33.8 µM (inactive), the GI50 (HOP-18) was 54.8 µM (inactive) and the GI50 (786-0) was > 100 µM (inactive). For the same compound, the GI50 (SNB-75) was 62.1 µM (inactive), the GI50 (DLD-1) was 33.4 µM (inactive) and the GI50 (SF-539) was 52.1 µM (inactive). For the same compound, the GI50 (CCRF-CEM) was 24.2 µM (inactive), the GI50 (OVCAR-3) was 17.3 µM (inactive) and the GI50 (UO-31) was 48.9 µM (inactive). The GI50 (SF-295) was 56.1 µM (inactive), the GI50 (HT-29) was 73.1 µM (inactive) and the GI50 (LXFL 529) was 28.4 µM (inactive). For the same compound, the GI50 (NCI-H460) was > 100 µM (inactive), the GI50 (SK-MEL-28) was > 100 µM (inactive) and the GI50 (SNB-19) was 98.6 µM (inactive). The GI50 (OVCAR-4) was 28.1 µM (inactive), the GI50 (RXF 631) was 35.6 µM (inactive) and the GI50 (ACHN) was 32.2 µM (inactive). For the same compound, the GI50 (M14) was 96.2 µM (inactive), the GI50 (LOX IMVI) was 46.5 µM (inactive) and the GI50 (MOLT-4) was 27 µM (inactive). For the same compound, the GI50 (IGROV-1) was 26.4 µM (inactive), the GI50 (COLO 205) was 35.3 µM (inactive) and the GI50 (SNB-78) was 79.8 µM (inactive). For the same compound, the GI50 (HL-60) was 19.5 µM (inactive), the GI50 (UACC-62) was 21 µM (inactive) and the GI50 (RPMI-8226) was 15.5 µM (inactive). For the same compound, the GI50 (OVCAR-8) was 29.3 µM (inactive), the GI50 (SF-268) was 40.8 µM (inactive) and the GI50 (TK-10) was 77.8 µM (inactive). The GI50 (SR) was 35.1 µM (inactive), the GI50 (NCI-H226) was 37.2 µM (inactive) and the GI50 (DMS-273) was 69.7 µM (inactive). The GI50 (DMS-114) was 30.1 µM (inactive), the GI50 (KM12) was 74 µM (inactive) and the GI50 (RXF 393) was 56.4 µM (inactive).
